Test results from patent US20250177418A1, “NEUROACTIVE STEROIDS FOR TREATMENT OF GASTROINTESTINAL DISEASES OR CONDITIONS” (Sage Therapeutics, Inc., priority 2022, published 2025).

Tested on: participants with major depressive disorder (MDD)
Experiment: Treatment-emergent adverse events (safety), study NCT04476030
Format: in vivo, human
Details: one patient, approximately 1 hour after Compound (1) 50 mg on Day 7
Experimental: A randomized, double-blind, parallel-group, active/placebo-controlled study (NCT04476030) in participants with major depressive disorder (MDD) was conducted. The study evaluated the efficacy and safety of Compound (1) 50 mg co-initiated with standard-of-care (SOC) antidepressant therapies (ADTs) (Compound (1)+ADT) vs placebo co-initiated with SOC ADT (placebo+ADT) in adults with MDD. Patients were randomized 1:1 to once-daily, blinded Compound (1)+ADT or placebo+ADT for 14 days then continued open-label SOC ADT for 28 more days.
An AE could therefore be any unfavorable and unintended sign (including an abnormal laboratory finding), symptom or disease temporally associated with the use of a medicinal (investigational) product whether or not related to the medicinal (investigational) product. In clinical studies, an AE could include an undesirable medical condition occurring at any time, including baseline or washout periods, even if no study treatment had been administered.
A treatment emergent adverse event (TEAE) was defined as an AE with onset after the start of investigational product (IP; Compound (1) or placebo), or any worsening of a pre-existing medical condition/AE with onset after the start of IP and throughout the study. The term IP included any Sage IP, a comparator, or a placebo administered in a clinical study. […]

| Structure (SMILES) | Investigator-assessed relationship of serious TEAE (seizure-like phenomena) to study drug |
| --- | --- |
| C[C@@]1(O)CC[C@H]2[C@H](CC[C@@H]3[C@@H]2CC[C@]2(C)[C@@H](C(=O)Cn4cc(C#N)cn4)CC[C@@H]32)C1 [Compound (1), 1-(2-((3R,5R,8R,9R,10S,13S,14S,17S)-3-hydroxy-3,13-dimethylhexadecahydro-1H-cyclopenta[a]phenanthren-17-yl)-2-oxoethyl)-1H-pyrazole-4-carbonitrile] | related |

Tested on: patients with major depressive disorder
Experiment: not given
Details: MDD patients, meta-analysis; cited from earlier work

| Structure (SMILES) | Rates of gastrointestinal adverse reactions compared to placebo | Tolerability on the gastrointestinal tract among antidepressants |
| --- | --- | --- |
| COc1ccc2cccc(CCNC(C)=O)c2c1 [agomelatine] | higher rates |  |
| CC(NC(C)(C)C)C(=O)c1cccc(Cl)c1 (centres unmarked) [bupropion] | higher rates |  |
| CN(C)CCCC1(c2ccc(F)cc2)OCc2cc(C#N)ccc21 (centres unmarked) [citalopram] | higher rates |  |
| CN(C)CC(c1ccc(O)cc1)C1(O)CCCCC1 (centres unmarked) [desvenlafaxine] | higher rates |  |
| CNCC[C@H](Oc1cccc2ccccc12)c1cccs1 [duloxetine] | higher rates |  |
| CN(C)CCC[C@@]1(c2ccc(F)cc2)OCc2cc(C#N)ccc21 [escitalopram] | higher rates | least tolerated |
| CNCCC(Oc1ccc(C(F)(F)F)cc1)c1ccccc1 (centres unmarked) [fluoxetine] | higher rates |  |
| COCCCC/C(=N\OCCN)c1ccc(C(F)(F)F)cc1 [fluvoxamine] | higher rates |  |
| CCN(CC)C(=O)[C@@]1(c2ccccc2)C[C@H]1CN [levomilnacipran] | higher rates |  |
| CN1CCN2c3ncccc3Cc3ccccc3C2C1 (centres unmarked) [mirtazapine] | higher rates |  |
| Fc1ccc([C@@H]2CCNC[C@H]2COc2ccc3c(c2)OCO3)cc1 [paroxetine] | higher rates |  |
| CCOc1ccccc1OC(c1ccccc1)C1CNCCO1 (centres unmarked) [reboxetine] | higher rates |  |
| CN[C@H]1CC[C@@H](c2ccc(Cl)c(Cl)c2)c2ccccc21 [sertraline] | higher rates | least tolerated |
| COc1ccc(C(CN(C)C)C2(O)CCCCC2)cc1 (centres unmarked) [venlafaxine] | higher rates |  |
| Cc1ccc(Sc2ccccc2N2CCNCC2)c(C)c1 [vortioxetine] | higher rates |  |

Tested on: not given
Experiment: not given
Details: compared to SSRIs and duloxetine; cited from earlier work

| Structure (SMILES) | Rates of nausea and vomiting |
| --- | --- |
| COc1ccc(C(CN(C)C)C2(O)CCCCC2)cc1 (centres unmarked) [venlafaxine] | higher rates |

Same assay, conditions: compared to other SSRIs and venlafaxine; cited from earlier work

| Structure (SMILES) | Incidence of diarrhea |
| --- | --- |
| CN[C@H]1CC[C@@H](c2ccc(Cl)c(Cl)c2)c2ccccc21 [sertraline] | higher incidence |
